Broadly, the logD is lipophilicity at a set pH, counting ionised and neutral species. For orientation: efflux ratio means a quotient of directional permeabilities that is used to spot active efflux. Usually IC50 stands for the concentration needed to halve the response being measured.

Data set [1] is described as follows: Stability in human plasma assessed as compound remaining after 5 hrs. The format is ADME, cell-free. Particulars: read-out: Stability.
The species named for data set [2] is Homo sapiens. Kind of data set: Inhibition of mRNA splicing of SMN2 exon 7 in fibroblasts derived from human SMA type 1/2/3 patient assessed as increase in SMN protein level after 48 hrs by HTRF assay.
The nature of data set [3]: Mutagenicity in Salmonella typhimurium TA1535 assessed as increase in revertant colonies after 2 days in presence of rat liver S9 fraction by Ames test relative to control. The format is toxicity. The note with it: salmonella enterica subsp. enterica serovar typhimurium, s9, 48 h.
Data set [4] in a line: Mutagenicity in Salmonella typhimurium TA98 assessed as increase in revertant colonies after 2 days in presence of rat liver S9 fraction by Ames test relative to control. The format is toxicity. Particulars: salmonella enterica subsp. enterica serovar typhimurium, s9, 48 h. On the technique in general: The Ames test detects mutagens through reverse mutation in bacteria.
Data set [5] can be described thus: Mutagenicity in Salmonella typhimurium TA97 assessed as increase in revertant colonies after 2 days in presence of rat liver S9 fraction by Ames test relative to control. The format is toxicity. Particulars: salmonella enterica subsp. enterica serovar typhimurium, s9, 48 h.
Data set [6] in a line: Mutagenicity in Salmonella typhimurium TA100 assessed as increase in revertant colonies after 2 days in presence of rat liver S9 fraction by Ames test relative to control. The format is toxicity. Particulars: salmonella enterica subsp. enterica serovar typhimurium, s9, 48 h.
The nature of data set [7]: Mutagenicity in Salmonella typhimurium TA102 assessed as increase in revertant colonies after 2 days in presence of rat liver S9 fraction by Ames test relative to control. Type of data set: toxicity. Particulars: salmonella enterica subsp. enterica serovar typhimurium, s9, 48 h.
The species named for data set [8] is Homo sapiens. Nature of the data set: Inhibition of mRNA splicing of SMN2 exon 7 in GM03813 fibroblasts derived from human SMA type 1 patient after 24 hrs by RT-qPCR analysis. A general note: In qPCR the cycle at which signal appears reflects the starting amount.
A short description of data set [9]: Octanol-aqueous phosphate buffer distribution coefficient, log D of the compound at pH 7.4 at 100 mM after 24 hrs by LC-MS based shake flask method. The format is physicochemical.
The target in another data set is P-gp (ABCB1) (Homo sapiens, UniProt P08183). Nature of the data set: Substrate activity at human P-gp assessed as efflux ratio by cell based assay. Particulars: not told.
P-gp (ABCB1), sequence (P08183 whole entry): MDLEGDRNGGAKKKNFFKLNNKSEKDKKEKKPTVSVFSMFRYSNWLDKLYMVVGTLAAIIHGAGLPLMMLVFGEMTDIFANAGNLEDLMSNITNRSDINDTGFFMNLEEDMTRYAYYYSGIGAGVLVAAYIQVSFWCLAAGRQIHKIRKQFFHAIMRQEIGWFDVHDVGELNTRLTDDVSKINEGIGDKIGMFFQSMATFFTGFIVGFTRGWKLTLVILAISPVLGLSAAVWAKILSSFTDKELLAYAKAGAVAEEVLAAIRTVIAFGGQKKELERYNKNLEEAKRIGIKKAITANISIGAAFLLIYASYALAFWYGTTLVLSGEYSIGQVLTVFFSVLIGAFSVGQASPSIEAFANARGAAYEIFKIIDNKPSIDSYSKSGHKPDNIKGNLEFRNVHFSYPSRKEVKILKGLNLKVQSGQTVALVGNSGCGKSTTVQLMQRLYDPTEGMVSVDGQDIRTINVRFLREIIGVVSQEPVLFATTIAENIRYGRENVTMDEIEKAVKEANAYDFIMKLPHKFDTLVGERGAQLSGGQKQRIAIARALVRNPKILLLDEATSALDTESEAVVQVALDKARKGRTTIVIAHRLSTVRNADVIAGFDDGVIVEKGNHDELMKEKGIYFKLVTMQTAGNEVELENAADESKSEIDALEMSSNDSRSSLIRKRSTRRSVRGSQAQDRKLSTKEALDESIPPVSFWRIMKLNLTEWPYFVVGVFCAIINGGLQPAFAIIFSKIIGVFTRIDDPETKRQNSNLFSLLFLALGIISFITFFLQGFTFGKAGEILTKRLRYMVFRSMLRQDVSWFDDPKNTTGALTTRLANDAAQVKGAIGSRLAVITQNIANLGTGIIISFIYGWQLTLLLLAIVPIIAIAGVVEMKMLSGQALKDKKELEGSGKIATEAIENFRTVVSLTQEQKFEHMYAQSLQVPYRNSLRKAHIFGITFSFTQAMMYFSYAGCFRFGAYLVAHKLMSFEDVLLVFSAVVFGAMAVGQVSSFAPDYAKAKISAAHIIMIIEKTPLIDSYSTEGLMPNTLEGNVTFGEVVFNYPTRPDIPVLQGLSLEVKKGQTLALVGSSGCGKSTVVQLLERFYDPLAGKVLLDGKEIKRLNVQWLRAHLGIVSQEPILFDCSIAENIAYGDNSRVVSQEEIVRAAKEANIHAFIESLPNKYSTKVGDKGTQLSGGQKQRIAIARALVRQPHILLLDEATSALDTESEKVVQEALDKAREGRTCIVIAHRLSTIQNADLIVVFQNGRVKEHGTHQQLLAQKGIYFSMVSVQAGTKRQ
The next data set has as its system NIH3T3. Kind of data set: Phototoxicity in mouse 3T3 cells in presence of UVA irradiation. Type of data set: functional, cell-based. Particulars: NIH3T3, light or radiation study.
A short description of data set [10]: Stability of the compound in human plasma. Type of data set: ADME, cell-free.
Data set [11] can be described thus: Stability of the compound in pH 1 to 12 aqueous buffer. Type of data set: physicochemical.

Each structure is given as a SMILES string. The source made the active and inactive calls. The calls are words filed in the database; no cut-off is given here.

`CC(=O)c1cc2ccc(F)cc2c(=O)o1`: the remaining at 5 h in [1] is 16%.
For the molecule `Cc1cn2nc(-c3cc(=O)n4cc(C5CCN(C)CC5)cc(C)c4n3)cc2c(C)n1`, the EC1.5 in the data set listed under Homo sapiens [2] amounted to 77 nM; in the data set listed under Homo sapiens [8], 57 nM. The Activity entry in data set [3], in [4], in data set [5], in data set [6] and in data set [7] was “Non-Toxic” each time. In addition, in data set [9], the logD at 24 h stood at 1.82. In addition, the efflux ratio on P-gp (ABCB1) came to 1.2.
Turning to `Cc1cn2cc(-c3cc(=O)n4cc(N5CCNCC5)ccc4n3)cc(F)c2n1`, the EC1.5 is 9 nM in the data set filed under Homo sapiens [2] and 1 nM in the data set filed under Homo sapiens [8]. The Activity entry in data set [3], in data set [4], in data set [5], in data set [6] and in data set [7] was “Non-Toxic” in each case.
In the case of `Cc1nc2c(F)cc(-c3cc(=O)n4cc(N5CCN(C)CC5)ccc4n3)cc2o1`, the EC1.5 is 13 nM in the data set listed under Homo sapiens [2] and 3 nM in the data set listed under Homo sapiens [8]. The fold change (FC) in data set [3] was less than 2; in data set [4], less than 2; in data set [5] it was less than 1.5; in data set [6], less than 1.5; in [7], less than 1.5. The molecule also displayed a logD at 24 h in data set [9] of 2.46. The efflux ratio at P-gp (ABCB1) came out at 1.1.
Consider `CCN1CCC(c2cc(C)c3nc(-c4cc5c(C)nc(C)cn5n4)cc(=O)n3c2)CC1`, for which the EC1.5 is 84 nM in the data set listed under Homo sapiens [2] and 30 nM in the data set listed under Homo sapiens [8]. The Activity entry in data set [3], in [4], in data set [5], in data set [6] and in data set [7] was “Non-Toxic” each time. In [9], this molecule registered a logD at 24 h of 1.87. The efflux ratio at P-gp (ABCB1) came to 1.4.
For the molecule `Cc1nc2ccc(-c3cc(=O)n4cc(N5CCN(C)CC5)ccc4n3)cn2n1`, the EC1.5 in the data set filed under Homo sapiens [2] amounted to 820 nM; in the data set listed under Homo sapiens [8], 314 nM. Moreover, the fold change (FC) in data set [3] was less than 2; in [4], less than 2; in data set [5] it was less than 1.5; in data set [6], less than 1.5; in [7], less than 1.5.
Regarding `CCN1CCN(c2ccc3cc(-c4cn5cc(C)nc(C)c5n4)c(=O)oc3c2)C[C@@H]1C`, the remaining at 5 h in data set [1] stood at 93%. For the same molecule, the IC50 in the data set with NIH3T3 was found to be 80 nM.
As for `CCc1nc(C)cn2nc(-c3cc(=O)n4cc(N5CCN6CCC[C@H]6C5)ccc4n3)cc12`, the EC1.5 turned out to be 163 nM in the data set listed under Homo sapiens [2] and 40 nM in the data set listed under Homo sapiens [8]. Also, the Activity result in data set [3], in data set [4], in [5], in [6] and in data set [7] was “Non-Toxic” each time.
Regarding `Cc1cn2cc(-c3cc(=O)n4cc(N5CCC(N6CCCC6)CC5)ccc4n3)cc(C(F)(F)F)c2n1`, the EC1.5 in the data set listed under Homo sapiens [2] came out at 76 nM. The same molecule returned a logD at 24 h in [9] of 1.45. Besides, the efflux ratio on P-gp (ABCB1) is 8.5.
Take `Cc1cn2cc(-c3cc4ccc(N5CCN(C)CC5)cc4c(=O)o3)nc2c(C)n1`: the remaining at 5 h in data set [1] came to 55%. Further, in the data set on NIH3T3, the IC50 came out at 150 nM.
With `Cc1nc2ccc(-c3cc(=O)n4cc(N5CCN(C)CC5)ccc4n3)cc2o1`, the values for the EC1.5 in the data set filed under Homo sapiens [2] and in the data set listed under Homo sapiens [8] were 395 nM and 148 nM, respectively. Further, the fold change (FC) is less than 2 in data set [3]; less than 2 in [4]; less than 1.5 in [5]; less than 1.5 in data set [6]; less than 1.5 in [7].
As for `CN1CCN(c2ccc3nc(-c4ccc5c(c4)ncn5C)cc(=O)n3c2)CC1`, the EC1.5 result in the data set listed under Homo sapiens [2] and in the data set listed under Homo sapiens [8] was “inactive” in each case. In addition, the fold change (FC) in data set [3] is less than 2; in data set [4] it was less than 2; in data set [5] it was less than 1.5; in [6] it was less than 1.5; in [7], less than 1.5.
In the case of `CN1CCN(c2ccc3nc(-c4ccc5nccn5c4)cc(=O)n3c2)CC1`, the results for the EC1.5 in the data set listed under Homo sapiens [2] and in the data set filed under Homo sapiens [8] were 3400 nM and 582 nM, respectively. Further, the fold change (FC) in [3] was less than 2; in data set [4] it was less than 2; in [5], less than 1.5; in data set [6], less than 1.5; in data set [7] it was less than 1.5.
Turning to `CCc1nc(C)cn2nc(-c3cc(=O)n4cc(C5=CCNCC5)cc(C)c4n3)cc12`, the EC1.5 amounted to 15 nM in the data set listed under Homo sapiens [2] and 6 nM in the data set filed under Homo sapiens [8]. Also, the Activity entry in [3], in data set [4], in data set [5], in [6] and in data set [7] was “Non-Toxic” in each case.
As to `Cc1nc2c(F)cc(-c3cc(=O)n4cc(N5CCNCC5)ccc4n3)cc2o1`, the values for the EC1.5 in the data set filed under Homo sapiens [2] and in the data set filed under Homo sapiens [8] were 4 nM and 1 nM, respectively. Also, the fold change (FC) was less than 2 in [3]; less than 2 in [4]; less than 1.5 in [5]; less than 1.5 in data set [6]; less than 1.5 in [7].
For `Cc1cn2cc(-c3cc(=O)n4cc(N5CCC(N6CCC6)CC5)ccc4n3)cc2c(C)n1`, the EC1.5 in the data set listed under Homo sapiens [2] came out at 46 nM. For the same molecule, the logD at 24 h in [9] is 1.53. The efflux ratio at P-gp (ABCB1) was determined as 6.6.
`Cc1cn2nc(-c3cc(=O)n4cc(N5CCN(C)CC5)ccc4n3)cc2c(C)n1`: the EC1.5 in the data set filed under Homo sapiens [2] is 170 nM; in the data set listed under Homo sapiens [8], 92 nM. For the same molecule, the Activity result in data set [3], in data set [4], in [5], in data set [6] and in [7] was “Non-Toxic” throughout. The IC50 with NIH3T3 was determined as 2900 nM. For the same molecule, the Stability result in data set [10] and in data set [11] was “Stable” throughout.
Consider `Cc1cn2cc(-c3cc(=O)n4cc(N5CCN(C)CC5)ccc4n3)ccc2n1`, for which the EC1.5 in the data set filed under Homo sapiens [2] came out at 760 nM; in the data set listed under Homo sapiens [8], 182 nM. The fold change (FC) in data set [3] was less than 2; in [4] it was less than 2; in [5], less than 1.5; in data set [6] it was less than 1.5; in data set [7], less than 1.5.
On to `Cc1cn2cc(-c3cc4ccc(F)cc4c(=O)o3)nc2c(C)n1`, for which the remaining at 5 h in data set [1] came to 30%.

The values above are taken from ChEMBL document CHEMBL4477215, “Specific Correction of Alternative Survival Motor Neuron 2 Splicing by Small Molecules: Discovery of a Potential Novel Medicine To Treat Spinal Muscular Atrophy” (J Med Chem, 2016).
